Experiments:
[1] = system: transglutaminase kératinocytaire (TGk); assay: Keratinocyte transglutaminase (TGk) activity in NHEK cultures (differentiation)
[2] = system: stratum corneum (SC) délipidisé; assay: Water retention (water-holding capacity, WHC) of delipidised stratum corneum after immersion in aqueous test solutions; parameters: species or system porc; conditions: 8 h immersion, après 6 heures à 25°C et 40% RH
Experimental: On étudie l'hydratation du stratum corneum (SC) délipidisé et traité par différentes solutions aqueuses.
Le but de cette étude est de montrer si l'application cutanée d'une solution aqueuse d'extrait de mastocarpus (10% de matière sèche), de floridoside pur à 3,8%, d'acide iséthionique pur à 1,9%, d'un mélange de floridoside pur à 3,8% et d'acide iséthionique pur à 1,9%, modifie significativement l'état d'hydratation du SC délipidisé puis conservé dans une enceinte à 25°C et à 40 % d'humidité relative (RH).
Dans cette étude, des échantillons de SC, isolés de l'épiderme de morceaux d'oreilles de porc par un traitement à la trypsine (1% dans un tampon phosphate; pH=7,4) puis délipidisés par un solvant (acétone par exemple), ont été immergés pendant 8 heures dans une solution aqueuse d'extrait de mastocarpus 10%, de floridoside pur à 3,8%, d'acide iséthionique pur à 1,9%, d'un mélange de floridoside pur à 3,8% et d'acide iséthionique pur à 1,9%, (3 échantillons de SC par produits). Trois échantillons de SC délipidisé ont été traités par de l'eau ultra pure (contrôle, 18 MΩ), pendant 8 heures. Après traitement, ces échantillons ont été pesés puis placés dans une étuve maintenue à 25°C et à 40% RH. La masse des échantillons de SC traités par chacune des solutions a été déterminée après 1h; 2h; 3h; 4h; 5h et 6h de conservation à 25°C et à 40% RH. […]

[3] = system: fibres musculaires en coculture avec des explants de moelle épinière; assay type: cell-based, cellules musculaires humaines; embryons de rat Wistar
[4] = acide rétinoïque, concentration not printed in this table (10^-7M per Tableau 4)

CC1=C(/C=C/C(C)=C/C=C/C(C)=C/C(=O)O)C(C)(C)CCC1 [Acide rétinoïque]
% témoin (activité TGk) ([1]; 10^-7M): 52%
Activité TGk (cpm) ([1]; 10^-7M): 447 cpm
réduction de l'activité TGk ([1]; 10^-7M): 46%
% (activité TGk/µg de protéines, par rapport au témoin) [1, 4]: 67%
activité/µg (activité TGk par rapport à la quantité de protéines) [1, 4]: 131

O=S(=O)(O)CCO [acide iséthionique]
état de déshydratation des échantillons de SC ([2]; acide iséthionique 1,9%, vs contrôle): moins déshydratés que les échantillons contrôles

OCC(CO)O[C@H]1O[C@H](CO)[C@H](O)[C@H](O)[C@H]1O [floridoside, 2-O-glycérol-α-D-galactopyranoside]
état de déshydratation des échantillons de SC ([2]; floridoside 3,8%, vs eau): n'était pas significativement différent

CCCC(C)(COC(N)=O)COC(=O)NC(C)C (centres unmarked) [carisoprodol]
fréquence de contraction des 3 fibres musculaires sélectionnées ([3]; 10^-3 M (0,03%), après 1 minute et 2 heures d'incubation): a bloqué
activité contractile après recharge en glucose ([3]; 10^-3 M, 48 heures d'incubation, apport de glucose): n'a pas permis aux fibres musculaires de reprendre une activité contractile
pourcentage moyen de contraction des trois fibres (récupération) ([3]; carisoprodol 10^-3 M, après changement de milieu et 2 heures sans produit, relative to initial frequency): 111%

CC1=C(/C=C/C(C)=C/C=C/C(C)=C/CO)C(C)(C)CCC1 [Rétinol]
% (activité TGk/µg de protéines, par rapport au témoin) ([1]; 10^-6 M): 72%
% témoin (activité TGk) ([1]; 10^-6 M): 54%
Activité TGk (cpm) ([1]; 10^-6 M): 465 cpm
activité/µg (activité TGk par rapport à la quantité de protéines) ([1]; 10^-6 M): 142
réduction de l'activité TGk ([1]; 10^-6 M): 48%

[Ca+2].[Cl-].[Cl-] [Chlorure de calcium]
% (activité TGk/µg de protéines, par rapport au témoin) ([1]; 1,5 mM): 317%
% témoin (activité TGk) ([1]; 1,5 mM): 394%
activité/µg (activité TGk par rapport à la quantité de protéines) ([1]; 1,5 mM): 626
Activité TGk (cpm) ([1]; 1,5mM, sans calcium dans le milieu): 3408 cpm
activité transglutaminase plus forte en milieu calcium qu'en milieu sans calcium ([1]; chlorure de calcium 1,5 mM): ~4 fois

Reference: patent publication EP1743628A1, “Cosmetic composition containing red algae extract comprising a combination of floridoside and isethionic acid” (Simer, priority 2005, dated 2007)
